Experimental findings from patent publication US7517851B2, “Chlamydia oligosaccharides” (priority 1996, dated 2009) are described below.

In the assay the test system is Chlamydia trachomatis L2/434/Bu. The assay is classed as cell-based. The note with it: HeLa cells, maximum concentration (20 μg) tested.

Where two headings read alike, the source gives them in different places.

As to oligomannose 9, the “% INHIBITION (infectivity inhibition)” value amounted to 64% (first of two separate sets of experiments) and 62% (second of two separate sets of experiments).
